# Where two headings read alike, the source gives them in different places.
# Legend:
# IKr channel [1] = molecular target: T1, IKr channel (Homo sapiens, UniProt Q12809); details: for double peaks (notches) three hours after taking sotalol: 80 mg sotalol
# Procedure: The QTcF, TAmp and TpTe were measured according to the same protocol as for example 1, before and three hours after administration of a single oral dose of sotalol at 80 mg.
# The ΔQTcF, ΔTpTe and ΔTAmp were also calculated.
# IKr channel [2] = molecular target: T1, IKr channel; experiment: ECG changes three hours after a single oral dose of 80 mg sotalol (GENEREPOL cohort, Example 1); format: in vivo; design: from tissue; host or cells: heart (ventricular myocardium) of living human volunteers; surface ECG read-out; details: H3
# Procedure: The cohort of patients was that of the GENEREPOL study, and consisted of 995 volunteers in good health, from 18 to 60 years old, of European or North African origin. The objective of this study was to identify genetic predispositions linked to the inhibition of the IKr channel after administration of 80 mg sotalol, with a body mass index between 19 and 29 kg/m^2, informed consent having been received. […]
# An intravenous catheter was inserted for taking blood samples. The ECG of the patients was then recorded using the Cardioplug device (Cardionics Inc®, Brussels, Belgium) connected to a laptop computer. […] Three hours after sotalol had been taken ([…]), the ECG was again recorded (in triplicate) after the subjects had remained lying on their back for 10 minutes and before lunch. […]
# The QTcF, TpTe and TAmp and the presence of notches (double peak) in the T wave were quantified. […]
# The quantitative analysis of the QTcF, TpTe and TAmp was carried out by two trained investigators, in order to limit the inter-evaluator variability.
# TpTe was measured by the tangent method, in triplicate, on a representative beat (average representation of an ECG of 10 seconds) on the V3, V4 and V5 leads. […]
# QTcF was measured by the tangent method on the DII lead for three consecutive beats and the average value of an evaluation in triplicate was retained. […]
# IKr potassium channel = IKr potassium channel (Homo sapiens, UniProt Q12809); details: cited from earlier work
# IKr potassium channel, sequence (Q12809 whole entry): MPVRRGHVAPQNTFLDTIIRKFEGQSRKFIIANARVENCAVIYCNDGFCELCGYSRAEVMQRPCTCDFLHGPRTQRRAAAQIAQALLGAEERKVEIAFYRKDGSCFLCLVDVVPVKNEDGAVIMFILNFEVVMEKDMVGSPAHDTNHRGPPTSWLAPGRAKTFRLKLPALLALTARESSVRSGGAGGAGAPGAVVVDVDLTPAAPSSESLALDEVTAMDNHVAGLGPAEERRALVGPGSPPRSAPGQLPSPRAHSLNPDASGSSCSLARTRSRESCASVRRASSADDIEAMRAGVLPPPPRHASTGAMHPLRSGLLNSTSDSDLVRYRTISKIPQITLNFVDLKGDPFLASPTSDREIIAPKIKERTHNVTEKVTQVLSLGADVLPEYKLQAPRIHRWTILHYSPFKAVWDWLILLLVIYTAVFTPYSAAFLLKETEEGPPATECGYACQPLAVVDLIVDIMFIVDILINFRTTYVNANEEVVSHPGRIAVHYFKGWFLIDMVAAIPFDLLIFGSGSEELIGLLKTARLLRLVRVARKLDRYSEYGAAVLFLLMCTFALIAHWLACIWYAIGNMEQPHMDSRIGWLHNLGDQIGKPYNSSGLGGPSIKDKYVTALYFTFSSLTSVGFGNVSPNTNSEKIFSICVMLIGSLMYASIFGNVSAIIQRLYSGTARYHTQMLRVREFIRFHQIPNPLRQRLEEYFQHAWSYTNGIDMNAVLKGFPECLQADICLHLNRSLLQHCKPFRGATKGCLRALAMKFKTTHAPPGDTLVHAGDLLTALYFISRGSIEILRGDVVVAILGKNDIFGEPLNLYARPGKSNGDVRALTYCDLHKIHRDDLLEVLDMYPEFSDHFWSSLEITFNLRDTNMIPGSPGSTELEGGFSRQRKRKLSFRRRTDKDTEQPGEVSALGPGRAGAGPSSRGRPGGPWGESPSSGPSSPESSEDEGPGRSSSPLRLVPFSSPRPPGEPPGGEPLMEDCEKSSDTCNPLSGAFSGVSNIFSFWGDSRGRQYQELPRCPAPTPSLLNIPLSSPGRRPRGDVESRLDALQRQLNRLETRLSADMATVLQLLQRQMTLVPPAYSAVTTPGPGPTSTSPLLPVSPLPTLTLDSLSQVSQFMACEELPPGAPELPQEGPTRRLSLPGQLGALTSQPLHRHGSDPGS
# T1 sequence (Q12809 whole entry): as above
SMILES,double peaks (notches) three hours after taking sotalol (IKr channel [1]; women taking drospirenone),"subjects exhibiting a double peak (notch) (IKr channel [2]; first (exploration) cohort, 40 subjects)","subjects exhibiting a double peak (notch) (IKr channel [2]; second (replication) cohort, 51 subjects)",double peaks (notches) three hours after taking sotalol (IKr channel [1]; women not taking an oral contraceptive),plasma sotalol concentration (IKr channel [1]; women taking drospirenone vs women with no contraception),risk of induction of torsades de pointes (IKr potassium channel; dose-dependent),increase in QT/QTc (IKr potassium channel; sotalol at 80 mg),induction of an episode of torsade de pointes (IKr potassium channel; sotalol at 80 mg),time of maximum concentration after oral intake (IKr potassium channel; taken orally)
C[C@]12CCC(=O)C=C1[C@@H]1C[C@@H]1[C@H]1[C@@H]3[C@@H]4C[C@@H]4[C@@]4(CCC(=O)O4)[C@@]3(C)CC[C@@H]12 [drospirenone],25.8%,,,,,,,,
CC(C)NCC(O)c1ccc(NS(C)(=O)=O)cc1 (stereo not drawn) [sotalol],,8%,10%,13.4%,No difference,up to 7 % of patients treated,approximately 20 ms,does not induce an episode of torsade de pointes,approximately 3 hours
